# Data: patent publication US3952101A, “α-Amino methyl-5-hydroxy-2-pyridinemethanols” (SmithKline Corporation, priority 1975, dated 1976)
# Tests used:
# [1] = system: guinea pig tracheal chain preparations; assay: effect on spontaneous tone of guinea pig tracheal chain preparations (β-stimulant direct relaxant effect on airway smooth muscle); format: cell-based
# Excerpt: (§1) Two in vitro test systems used for determining selective β-stimulant activity are: (1) effect on spontaneous tone of guinea pig tracheal chain preparations as a measure of β-stimulant (direct relaxant) effect on airway smooth muscle, and (2) effect on rate of spontaneously beating right atria of the guinea pig as a measure of β-stimulant effect on cardiac muscle.
# guinea pig right atria = assay: effect on rate of spontaneously beating right atria of the guinea pig (β-stimulant effect on cardiac muscle); format: cell-based; settings: Cavia porcellus; in vitro, at a dose of 30.0 mcg/ml; read-out: increase in the rate of contraction of guinea pig right atria
# Excerpt: as §1
SMILES,"absolute separation ratio ([1]; tracheal versus right atria activity, similar in vitro preparations)",activation at 30 µg/mL (guinea pig right atria),"EC50 ([1]; Cavia porcellus, in vitro, spontaneous tone, read-out: ED50, relaxes the spontaneous tone of guinea pig tracheal ring preparation)"
"CC(C)NCC(O)c1ccc(O)c(O)c1 (stereo not drawn) [d,1-isoproterenol, reference compound]",0.5,,
CC(C)(C)NCC(O)c1ccc(O)c(CS(C)(=O)=O)n1 (stereo not drawn) [α-(t-butylaminomethyl)-5-hydroxy-6-methanesulfonylmethyl-2-pyridinemethanol],,13%,8.8 ng/mL
